According to patent US12486270B2, “Receptor tyrosine kinase inhibitors for treatment of protein kinase modulation-responsive disease or disorder” (THE UNITED STATES OF AMERICA, as represented by the …, priority 2019, dated 2025):

Key:
EphB4 = EphB4 (Homo sapiens (Human), UniProt P54760); test: Endogenous EphB4 tyrosine phosphorylation by ELISA in HT29 cell lysates; type: cell-based; details: four hours treatment
Description: (§1) ELISA. ELISA plates (ThermoFisher Scientific, Immulon 4HBX, 3855) were coated overnight at 4° C. with capture antibody 75 ng/well in PBS, and blocked with 5% BSA (Sigma-Aldrich, St. Louis, MO) in PBS for two hours at room temperature. Capture antibodies for EphB4 was goat polyclonal antibody (R&D Systems AF3038); for EphA2 was goat polyclonal antibody (R&D Systems AF3035); 10 ug of cell lysate was applied to the ELISA well for two hours at room temperature. The amount of tyrosine phosphorylation was measured with pTyr-HRP antibody (R&D Systems, HAM1676). The ELISA was developed with 3,3′,5,5′-Tetramethylbenzidine (TMB) (ThermoFisher Scientific, 7588927) for 15 minutes and stopped with 1M H2SO4 (Sigma-Aldrich, 258105). Absorbance at 450 nm was measured using POLARstar Optima plate reader (BMG Labtech, Cary, NC). All conditions were tested in duplicate. pEphB2 was measured by ELISA (Ray Biotech, PEL-EphB2-Y) according to the manufacturer's recommendations.

EphA2 [1] = target: T1, EphA2 (Homo sapiens (Human), UniProt P29317); test: Binding affinity to EphA2 by microscale thermophoresis (MST); details: towards EphA2
Description: The binding affinities of the compounds to EphA2 were investigated by microscale thermophoresis (MST) (M. Jerabek-Willemsen et al., J. Mol. Struct. 2014, 1077, 101-113).

SW620 = test: Cell cycle analysis by flow cytometry in colorectal cancer cells (SW620); type: cell-based, human; details: 72 hours; compared to control and NVP/NVP-Iso
Description: Cell cycle was assessed by flow cytometry. Adherent cells were harvested, washed with PBS and fixed for 30 minutes in cold 70% ethanol at 4° C. Cells were washed twice with PBS, treated with 2.5 μg/mL RNaseA (ThermoFisher, 12091039) for 30 minutes at room temperature, and then stained with 10 μg propidium iodide for 15 minutes prior to analysis performed on FACS Canton (BD Biosciences; San Jose, CA) and cell cycled analyzed (FloJo software).

[2] = system: SW620 colorectal cancer cell; test: Cell death by flow cytometry after DRAQ5/PI staining, colorectal cancer cells (SW620); type: cell-based, human; details: 72 hours
Description: Cell viability was measured by flow cytometry. Briefly, floating and adherent cells were collected by centrifugation, pelleted and suspended in PBS −/− (ThermoFisher, 10010-049) supplemented with 1% BSA (Sigma, A2153), 5 mM EDTA (Qualify Biological, 351-027), 10 mM glucose (Sigma, D9434) and 10 mM HEPES (Corning, 25-060-CI). After the cells (1×10^6 cells/mL) were stained with 25 μM DRAQ5 (BioLegend, San Diego, CA; 424101) for 60 minutes and 2 μg propidium iodide (ThermoFisher, P3566) for 15 minutes, analysis was performed on a FACSCantoll (BD Biosciences, Franklin Lakes, NJ; 338962). Results were analyzed by FloJo software (FlowJo LLC, Ashland, OR).

EphA2 [3] = target: T1, EphA2; test: Endogenous EphA2 tyrosine phosphorylation by ELISA in RKO cell lysates; type: cell-based; details: four hours treatment
Description: as §1

LC3B = LC3B autophagy marker by immunoblotting in HT-29 cells; type: cell-based, human; details: 72-hour incubation
Description: Western blotting. Protein lysates were separated by SDS-PAGE and then transferred to a nitrocellulose membrane. After blocking, membranes were incubated overnight with antibodies to LC3 (rabbit Monoclonal antibody, Cell Signaling).

SW620 cells = test: Cleaved caspase-3 immunofluorescence microscopy in colorectal cancer cells (SW620); type: cell-based, human; details: 72 hours
Description: Cell viability was also measured by detection of cell-associated cleaved caspase-3. Cells were grown on gelatin-coated glass chamber slides, fixed in 4% paraformaldehyde, immune-stained with rabbit monoclonal antibody to cleaved Caspase 3 (1:100 Cell Signaling Technology) followed by Alexa Fluor 488-conjugated anti-rabbit IgG (1:400 Invitrogen) and mounted with Vectastain containing DAPI (Vector Laboratories). The slides were imaged through a Zeiss LSM780 confocal microscope. Image quantification (cleaved Caspase-3^+ nucleiltotal nuclei) was performed by CellProfiler software.

EphB2 = EphB2 (Homo sapiens (Human), UniProt P29323); test: Endogenous EphB2 tyrosine phosphorylation by ELISA in Colo-205 cell lysates; type: cell-based; details: four hours treatment
Description: as §1

T1 sequence (P29317 24-976): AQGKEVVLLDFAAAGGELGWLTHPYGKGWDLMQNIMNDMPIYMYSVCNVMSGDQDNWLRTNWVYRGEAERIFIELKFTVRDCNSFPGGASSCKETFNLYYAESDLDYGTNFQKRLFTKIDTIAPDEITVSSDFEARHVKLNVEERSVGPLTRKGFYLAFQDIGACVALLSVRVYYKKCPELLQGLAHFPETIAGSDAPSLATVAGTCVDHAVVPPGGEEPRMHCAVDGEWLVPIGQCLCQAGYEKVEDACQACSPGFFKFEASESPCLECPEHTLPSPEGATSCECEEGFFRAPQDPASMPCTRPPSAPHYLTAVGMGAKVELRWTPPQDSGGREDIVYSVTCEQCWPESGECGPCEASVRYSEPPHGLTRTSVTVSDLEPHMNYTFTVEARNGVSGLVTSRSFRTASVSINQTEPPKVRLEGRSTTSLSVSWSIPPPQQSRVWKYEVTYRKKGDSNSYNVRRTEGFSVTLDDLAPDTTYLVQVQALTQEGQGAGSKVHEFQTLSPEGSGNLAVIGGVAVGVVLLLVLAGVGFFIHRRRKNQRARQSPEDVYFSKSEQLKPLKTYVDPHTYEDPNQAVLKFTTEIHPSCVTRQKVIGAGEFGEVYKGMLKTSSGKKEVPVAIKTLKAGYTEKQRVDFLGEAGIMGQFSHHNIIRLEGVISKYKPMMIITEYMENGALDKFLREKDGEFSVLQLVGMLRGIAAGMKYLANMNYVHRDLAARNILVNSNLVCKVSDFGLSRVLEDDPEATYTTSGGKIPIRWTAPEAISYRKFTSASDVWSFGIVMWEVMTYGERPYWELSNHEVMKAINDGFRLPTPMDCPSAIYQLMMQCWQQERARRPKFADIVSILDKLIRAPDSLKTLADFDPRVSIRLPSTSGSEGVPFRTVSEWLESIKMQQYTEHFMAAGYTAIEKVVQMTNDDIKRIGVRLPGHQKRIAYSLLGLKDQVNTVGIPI
Chain of EphB2 (P29323 19-1055): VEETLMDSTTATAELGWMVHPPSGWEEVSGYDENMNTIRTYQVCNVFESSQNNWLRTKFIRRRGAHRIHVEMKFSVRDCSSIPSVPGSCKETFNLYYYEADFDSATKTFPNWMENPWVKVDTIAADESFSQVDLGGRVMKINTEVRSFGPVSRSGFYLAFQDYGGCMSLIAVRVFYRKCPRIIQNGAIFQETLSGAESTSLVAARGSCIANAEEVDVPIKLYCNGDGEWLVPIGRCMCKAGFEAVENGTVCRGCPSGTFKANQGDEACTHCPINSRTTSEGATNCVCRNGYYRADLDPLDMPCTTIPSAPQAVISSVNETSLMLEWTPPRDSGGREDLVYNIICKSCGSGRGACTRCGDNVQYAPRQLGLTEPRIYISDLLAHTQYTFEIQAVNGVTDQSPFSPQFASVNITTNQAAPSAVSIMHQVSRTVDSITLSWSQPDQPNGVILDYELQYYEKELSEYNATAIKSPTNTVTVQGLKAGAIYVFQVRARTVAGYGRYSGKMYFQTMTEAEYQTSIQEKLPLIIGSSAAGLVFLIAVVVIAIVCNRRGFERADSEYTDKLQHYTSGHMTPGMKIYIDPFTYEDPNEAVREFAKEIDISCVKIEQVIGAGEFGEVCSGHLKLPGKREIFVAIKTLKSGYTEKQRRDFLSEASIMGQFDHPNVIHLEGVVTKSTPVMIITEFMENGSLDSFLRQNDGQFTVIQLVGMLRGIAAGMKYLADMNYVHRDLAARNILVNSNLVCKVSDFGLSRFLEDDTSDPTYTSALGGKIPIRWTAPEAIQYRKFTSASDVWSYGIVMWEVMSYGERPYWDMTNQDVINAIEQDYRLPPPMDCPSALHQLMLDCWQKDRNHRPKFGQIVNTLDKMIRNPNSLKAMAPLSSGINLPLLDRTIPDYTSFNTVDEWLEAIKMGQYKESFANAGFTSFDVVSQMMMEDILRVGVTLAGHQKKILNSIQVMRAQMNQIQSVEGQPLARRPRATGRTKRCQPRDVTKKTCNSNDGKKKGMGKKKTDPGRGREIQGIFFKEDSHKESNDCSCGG
Chain of EphB4 (P54760 16-987): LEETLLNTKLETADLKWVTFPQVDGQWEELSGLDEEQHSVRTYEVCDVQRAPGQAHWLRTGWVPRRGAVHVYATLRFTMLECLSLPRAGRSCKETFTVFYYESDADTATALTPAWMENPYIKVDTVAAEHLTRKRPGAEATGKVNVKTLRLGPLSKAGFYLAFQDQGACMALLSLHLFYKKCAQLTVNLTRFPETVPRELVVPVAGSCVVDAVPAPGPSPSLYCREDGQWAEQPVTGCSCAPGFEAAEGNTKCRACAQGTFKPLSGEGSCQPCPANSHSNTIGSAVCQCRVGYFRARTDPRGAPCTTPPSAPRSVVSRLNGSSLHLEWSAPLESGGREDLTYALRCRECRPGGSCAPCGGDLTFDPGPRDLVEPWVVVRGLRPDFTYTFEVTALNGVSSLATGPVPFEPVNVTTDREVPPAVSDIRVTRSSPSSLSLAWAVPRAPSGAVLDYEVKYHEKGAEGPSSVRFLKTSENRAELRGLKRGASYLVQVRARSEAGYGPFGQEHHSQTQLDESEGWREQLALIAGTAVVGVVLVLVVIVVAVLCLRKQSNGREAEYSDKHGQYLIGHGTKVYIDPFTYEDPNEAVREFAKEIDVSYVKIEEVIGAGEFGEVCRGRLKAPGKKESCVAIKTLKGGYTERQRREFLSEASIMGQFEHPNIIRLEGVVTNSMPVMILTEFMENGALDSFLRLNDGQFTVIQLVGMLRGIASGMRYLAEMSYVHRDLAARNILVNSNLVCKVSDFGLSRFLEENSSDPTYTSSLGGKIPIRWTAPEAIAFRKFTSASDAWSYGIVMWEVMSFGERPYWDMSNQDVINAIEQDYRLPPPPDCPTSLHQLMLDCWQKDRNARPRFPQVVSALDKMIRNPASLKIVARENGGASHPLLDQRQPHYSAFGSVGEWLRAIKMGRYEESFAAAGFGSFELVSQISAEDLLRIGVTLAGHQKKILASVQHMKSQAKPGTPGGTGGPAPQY

Cc1ccc(C(=O)Nc2cccc(C(F)(F)F)c2)cc1Nc1nc(-c2cnccn2)nc2c1cnn2C [@1, 4-Methyl-3-((1-methyl-6-(pyrazin-2-yl)-1H-pyrazolo[3,4-d]pyrimidin-4-yl)amino)-N-(3-(trifluoromethyl)phenyl)benzamide]
inhibitory activity for p-EphB4 compared to NVP (EphB4): comparable or only slightly reduced inhibitory activity | Kd (EphA2 [1]): 3 nM | distribution of cells within the cell cycle (SW620): marked reduction of the proportion of cells within the G2M phase | colorectal cancer cell death by flow cytometry (DRAQ5/PI) [2]: no or minimal colorectal cancer cell death | inhibitory activity for p-EphA2 compared to NVP (EphA2 [3]): comparable or only slightly reduced inhibitory activity | induction of autophagosome marker LC3B (immunoblotting) (LC3B): failure | cleaved caspase-3 detection in treated cells (SW620 cells): only in a minority of cells | inhibitory activity for p-EphB2 compared to NVP (EphB2): comparable or only slightly reduced inhibitory activity
